Source: article PMC12105006, “AI-Driven De Novo Design and Development of Nontoxic DYRK1A Inhibitors” (Journal of Medicinal Chemistry, 2025)
Entries after “also recorded” stand apart in the source; their conditions may differ. Like-named read-outs stand apart in the source and are kept apart here.

How the values were obtained:
[1] = target: DYRK1B (Homo sapiens, UniProt Q9Y463); assay: ADP-Glo DYRK1B kinase enzyme inhibition assay; settings: read-out: IC50 (nM) DYRK1B; ATP (10 μmol/well) and DYRKtidE (4 μmol/well) as substrate; triplicate
DYRK1B, sequence (Q9Y463 whole entry): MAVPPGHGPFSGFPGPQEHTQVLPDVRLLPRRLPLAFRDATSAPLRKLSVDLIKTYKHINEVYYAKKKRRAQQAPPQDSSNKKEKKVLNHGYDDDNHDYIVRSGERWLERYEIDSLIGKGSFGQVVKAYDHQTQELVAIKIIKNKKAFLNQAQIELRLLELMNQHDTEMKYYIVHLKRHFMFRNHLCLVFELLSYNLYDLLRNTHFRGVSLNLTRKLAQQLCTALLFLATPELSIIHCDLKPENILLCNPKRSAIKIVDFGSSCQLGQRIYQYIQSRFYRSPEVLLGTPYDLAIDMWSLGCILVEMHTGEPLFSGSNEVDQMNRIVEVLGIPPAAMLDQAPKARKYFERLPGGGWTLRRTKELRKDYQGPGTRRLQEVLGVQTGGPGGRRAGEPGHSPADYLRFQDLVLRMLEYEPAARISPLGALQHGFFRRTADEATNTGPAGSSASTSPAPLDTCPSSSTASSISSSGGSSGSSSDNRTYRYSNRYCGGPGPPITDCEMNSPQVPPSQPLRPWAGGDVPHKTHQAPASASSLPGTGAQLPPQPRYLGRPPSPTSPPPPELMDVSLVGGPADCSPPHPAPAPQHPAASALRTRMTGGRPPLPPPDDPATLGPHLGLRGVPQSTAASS

[2] = PAMPA-BBB assay; assay type: in vitro ADME; settings: for BBB prediction: PAMPA-BBB, porcine brain lipid, 3 h, 25 °C
Method: The brain penetration of active compounds was assessed using a parallel artificial membrane permeability assay (PAMPA). Eleven drugs with known blood–brain barrier (BBB) permeability–Hydrocortisone, testosterone, imipramine, piroxicam, promazine, clonidine, desipramine, ofloxacin, aldosterone, verapamil, and caffeine–were included in each experiment to validate the analysis.
The compounds were dissolved in a 70/30 PBS pH = 7.4 buffer/ethanol solution at a concentration that ensured appropriate absorbance values in the UV–vis light spectrum. A 5 mL volume of these solutions was filtered using PDVF membrane filters (30 mm diameter, 0.45 μ m pore size).
The acceptor 96-well microplate (MultiScreen 96-well Culture Tray clear, Merck Millipore) was filled with 200 μL of PBS/ethanol (70/30). The donor 96-well filtrate plate (Multiscreen IP Sterile Plate PDVF membrane, 0.45 μ m pore size, Merck Millipore) was coated with 4 μL of porcine brain lipid (Spectra 2000) in dodecane (20 mg mL^–1).
After 5 min, 200 μL of each compound solution were added. The donor plate was then carefully placed onto the acceptor plate to form a “sandwich,” which was left undisturbed for 3 h at 25 °C. During this time, the compounds diffused from the donor plate through the brain lipid membrane into the acceptor plate.
After incubation, the donor plate was removed. The concentrations of the compounds and commercial drugs were determined by measuring absorbance in the donor wells (before incubation) and the acceptor wells (after incubation) using a CLARIOstar microplate reader (BMG LABTECH). Each sample was analyzed at five wavelengths in four replicates and two independent experiments.
The permeability coefficient (P e) of each drug, in centimeters per second, was calculated using the following formula Pe=Vd·Vr/(Vd−Vr)·s·t·100·Vd/100·Vd−%T(Vd−Vr) %T=Vr·Ar/Ad·Vd·100 where V d and V r are the volumes of the donor and receptor solutions (0.2 cm^3), s is the membrane area (0.2642 cm^2), t is the incubation time (3 h = 10,800 s), A r is the absorbance of the receptor plate after the experiment, and A d is the absorbance in the donor compartment before incubation. The results obtained for quality control drugs were compared with permeability data from the literature. […] Compounds that correlate with reported P e values between 2 and 4 × 10^–6 cm s^–1 are classified as CNS+/–.

[3] = test system: LPS-induced NO production in BV2 microglial cells; assay: LPS-induced nitrite (NO) production, Griess reaction; assay type: cell-based, mouse; settings: for dose-dependent inhibition of LPS-induced NO production: decreasing concentrations (Figures S17, S18); for LPS-induced NO production: maximum dose 5 μM (1, 5, 8, 9) or 10 μM (6, 7, 10, 11), LPS 24 h, 1 h pretreatment
Method: (§1) The mouse microglial BV2 cell line was propagated using DMEM, 10% FBS, 1% streptomycin–penicillin, under humidified 5% CO2 and 95% air. On attaining semiconfluence, cells were treated with 400 ng/mL of LPS for 24 h. Some cultures were pretreated for 1 h with the different compounds at several concentrations ranging from 1 to 10 μM. After treatment, cultures were processed for cell viability and nitrite production. Experiments were performed in triplicate. BV2 cells, microglial cells derived from C57/BL6 murine. These cells were immortalized using the v-raf/v-myc carrying J2 retrovirus, resulting in a stable cell line. The cells are commercially available from https://www.cytion.com/BV2-Cells/305156.
The assessment of NO production involved quantifying nitrite levels, one of the end products of NO oxidation, through a procedure based on the diazotization of nitrite by sulfanilic acid (Griess reaction). Upon reaching semiconfluence, cells were exposed to 400 ng/mL of LPS for 24 h. Before this, certain cultures were pretreated with various compounds at concentrations ranging from 0.5 to 10 μM. Following a 24-h incubation period, 50 μL aliquots of the samples were combined with 50 μL of Griess reagent in 96-well plates, and the mixture was allowed to incubate at room temperature for 10 min. The absorbance of the resulting mixture was then measured at 520 nm using a microplate reader.

[4] = target: Human DYRK1A Kinase (Homo sapiens, UniProt Q13627); assay: ADP-Glo DYRK1A kinase enzyme inhibition assay; settings: for IC50: read-out: IC50 (nM) DYRK1A, ATP (10 μmol/well) and DYRKtidE (4 μmol/well) as substrate, triplicate
[5] = Oxygen radical absorbance capacity (ORAC) antioxidant assay
[6] = test system: BV2 microglial cells; assay: MTT cell viability / toxicity in BV2 cells; assay type: cell-based, mouse
Method: as §1
Cell viability was determined using the MTT assay, which measures the reduction of 3-(4,5-dimethylthiazol-2-yl)-2,5-diphenyltetrazolium bromide (MTT) to formazan crystals. Briefly, the MTT solution (2 mg/mL) was added to each well and incubated at 37 °C for 2 h. After removing the culture medium, 100 μL of dimethyl sulfoxide was added to each well to dissolve the formazan. The optical density was measured at 532 nm using a microplate reader. The absorbance of the control group was considered as 100% of the cell viability.

[7] = phosphate buffer pH 7.4, fluorescein/AAPH

Fc1cccc(-c2c[nH]c3ncc(-c4cnn(C5CCNCC5)c4)cc23)c1 [Compound 8, 3-(3-Fluorophenyl)-5-(1-(piperidin-4-yl)-1H-pyrazol-4-yl)-1H-pyrrolo[2,3-b]py-ridine]
IC50 [1]: 70 ± 5 nM | BBB prediction [2]: CNS+ (CNS+, correlating with a bibliographic P e > 4) | dose-dependent inhibition of LPS-induced NO production [3]: particularly strong | LPS-induced NO production [3]: most pronounced effects | DYRK1A activity / IC50 values [4]: comparable to the reference compound, harmine | IC50 [4]: 48 ± 3 nM | ORAC [5]: 1.0 ± 0.1 | ORAC [5, 7]: 1.0 ± 0.1 μmol of trolox equivalents/μmol of tested compound | toxicity (MTT assay) ([6]; at 5 μM): nontoxic | toxicity (MTT assay) ([6]; at 10 μM): exhibited toxicity

Clc1cc(Cl)cc(-c2c[nH]c3ncc(-c4cnn(C5CCNCC5)c4)cc23)c1 [Compound 10, 3-(3,5-Dichlorophenyl)-5-(1-(piperidin-4-yl)-1H-pyrazol-4-yl)-1H-pyrrolo[2,3-b]pyridine]
IC50 [1]: 566 ± 61 nM | ability to cross the blood–brain barrier by passive permeation ([2]; PAMPA): in the limit of a positive prediction | BBB prediction [2]: CNS+/– (Compounds that correlate with reported P e values between 2 and 4 × 10^–6 cm s^–1 are classified as CNS+/–) | IC50 [4]: 450 ± 18 nM | ORAC [5]: 0.55 ± 0.07 | ORAC values [5]: around 0.5 trolox equivalents | ORAC [5, 7]: 0.55 ± 0.07 μmol of trolox equivalents/μmol of tested compound | toxicity (MTT assay) ([6]; concentrations up to 10 μM): nontoxic

CN1CCC(n2cc(-c3cnc4[nH]cc(-c5cc(Cl)cc(Cl)c5)c4c3)cn2)CC1 [Compound 6, 3-(3,5-Dichlorophenyl)-5-(1-(1-methylpiperidin-4-yl)-1H-pyrazol-4-yl)-1H-py-rrolo[2,3-b]pyridine]
IC50 [1]: 577 ± 49 nM | BBB prediction [2]: CNS+ (CNS+, correlating with a bibliographic P e > 4) | ORAC values [5]: around 0.5 trolox equivalents | toxicity (MTT assay) ([6]; concentrations up to 10 μM): nontoxic

COc1cccc(-c2c[nH]c3ncc(-c4cnn(C5CCNCC5)c4)cc23)c1 [Compound 9, 3-(3-Methoxyphenyl)-5-(1-(piperidin-4-yl)-1H-pyrazol-4-yl)-1H-pyrrolo[2,3-b]pyridine]
IC50 [1]: 109 ± 8 nM | BBB prediction [2]: CNS+ (CNS+, correlating with a bibliographic P e > 4) | dose-dependent inhibition of LPS-induced NO production [3]: particularly strong | DYRK1A activity / IC50 values [4]: comparable to the reference compound, harmine | IC50 [4]: 81 ± 4 nM | ORAC [5]: 1.3 ± 0.1 | ORAC [5, 7]: 1.3 ± 0.1 μmol of trolox equivalents/μmol of tested compound | toxicity (MTT assay) ([6]; at 5 μM): nontoxic | toxicity (MTT assay) ([6]; at 10 μM): exhibited toxicity

COc1cccc(-c2c[nH]c3ncc(-c4cnn(C5CCN(C)CC5)c4)cc23)c1 [Compound 5, 3-(3-Methoxyphenyl)-5-(1-(1-methylpiperidin-4-yl)-1H-pyrazol-4-yl)-1H-pyrro-lo[2,3-b]pyridine]
IC50 [1]: 119 ± 11 nM | BBB prediction [2]: CNS+ (CNS+, correlating with a bibliographic P e > 4) | dose-dependent inhibition of LPS-induced NO production [3]: particularly strong | DYRK1A activity / IC50 values [4]: comparable to the reference compound, harmine | IC50 [4]: 79 ± 5 nM | ORAC [5]: 1.25 ± 0.07 | ORAC [5, 7]: 1.25 ± 0.07 μmol of trolox equivalents/μmol of tested compound | toxicity (MTT assay) ([6]; at 5 μM): nontoxic | toxicity (MTT assay) ([6]; at 10 μM): exhibited toxicity

COc1cc(-c2c[nH]c3ncc(-c4cnn(C5CCN(C)CC5)c4)cc23)c(F)cc1C [Compound 7, 3-(2-Fluoro-5-methoxy-4-methylphenyl)-5-(1-(1-methylpiperidin-4-yl)-1H-py-razol-4-yl)-1H-pyrrolo[2,3-b]pyridine]
IC50 [1]: 174 ± 31 nM | BBB prediction [2]: CNS+ (CNS+, correlating with a bibliographic P e > 4) | ORAC [5]: 1.3 ± 0.1 | ORAC [5, 7]: 1.3 ± 0.1 μmol of trolox equivalents/μmol of tested compound | toxicity (MTT assay) ([6]; concentrations up to 10 μM): nontoxic

CN1CCC(n2cc(-c3cnc4[nH]cc(-c5cccc(F)c5)c4c3)cn2)CC1 [Compound 1, 3-(3-fluorophenyl)-5-(1-(1-methylpiperidin-4-yl)-1H-pyrazol-4-yl)-1H-pyrrolo[2,3-b]pyridine]
IC50 [1]: 78 ± 3 nM | BBB prediction [2]: CNS+ (CNS+, correlating with a bibliographic P e > 4) | dose-dependent inhibition of LPS-induced NO production [3]: particularly strong | LPS-induced NO production [3]: most pronounced effects | DYRK1A activity / IC50 values [4]: activity at the nanomolar level; also recorded: comparable to the reference compound, harmine | IC50 [4]: 41 ± 3 nM | ORAC [5]: 1.02 ± 0.03 | ORAC [5, 7]: 1.02 ± 0.03 μmol of trolox equivalents/μmol of tested compound | toxicity (MTT assay) ([6]; at 5 μM): nontoxic | toxicity (MTT assay) ([6]; at 10 μM): exhibited toxicity

COc1cc(-c2c[nH]c3ncc(-c4cnn(C5CCNCC5)c4)cc23)c(F)cc1C [Compound 11, 3-(2-Fluoro-5-methoxy-4-methylphenyl)-5-(1-(piperidin-4-yl)-1H-pyrazol-4-yl)-1H-pyrrolo[2,3-b]pyridine]
IC50 [1]: 165 ± 30 nM | BBB prediction [2]: CNS+ (CNS+, correlating with a bibliographic P e > 4) | IC50 [4]: 165 ± 17 nM | ORAC [5]: 1.20 ± 0.1 | ORAC [5, 7]: 1.2 ± 0.1 μmol of trolox equivalents/μmol of tested compound | toxicity (MTT assay) ([6]; concentrations up to 10 μM): nontoxic
